Experimental data from patent publication US20240269139A1, “COMPOUNDS FOR TARGETED PROTEIN DEGRADATION OF KINASES” (DANA-FARBER CANCER INSTITUTE, INC., priority 2020, published 2024).
Like-named read-outs stand apart in the source and are kept apart here.

Experiments:
Type in all cases: cell-based
[1] = molecular target: protein kinases (human kinome) (Homo sapiens, UniProt P11802)
[2] = molecular target: protein kinases (human kinome) (Homo sapiens, UniProt Q00534); details: for logFC CDK6: CDK6 (Q00534), direction down, experiment wp084; for logFC of CDK6 (Q00534): Experiment wp084, down
[3] = system: protein kinases (human kinome); details: for logFC PDK3: PDK3 (Q15120-2); for logFC ABL1: ABL1 (P00519-2); for logFC of SRC: Accession P12931-2; for logFC LCK: accession P06239-3
[4] = molecular target: protein kinases (human kinome) (Homo sapiens, UniProt P53671); details: for logFC LIMK2: LIMK2 (P53671), down; for logFC of LIMK2: LIMK2 P53671
[5] = molecular target: protein kinases (human kinome) (Homo sapiens, UniProt P51451); details: for logFC BLK: BLK (P51451), direction down; for logFC of BLK (P51451): down
[6] = ACAD10 (Q6JQN1-5), experiment wp084
[7] = experiment wp071, direction of change down
[8] = experiment wp131, direction of change down
[9] = Accession O60566-3, experiment wp076, direction down
[10] = BUB1B (O60566-3), experiment wp076
[11] = CSNK1A1 (P48729-2), experiment wp076
[12] = experiment wp045, direction of change down
[13] = CLK1 P49759-3, experiment wp076

Chain of protein kinases (human kinome) (Homo sapiens, UniProt P51451) (P51451 whole entry): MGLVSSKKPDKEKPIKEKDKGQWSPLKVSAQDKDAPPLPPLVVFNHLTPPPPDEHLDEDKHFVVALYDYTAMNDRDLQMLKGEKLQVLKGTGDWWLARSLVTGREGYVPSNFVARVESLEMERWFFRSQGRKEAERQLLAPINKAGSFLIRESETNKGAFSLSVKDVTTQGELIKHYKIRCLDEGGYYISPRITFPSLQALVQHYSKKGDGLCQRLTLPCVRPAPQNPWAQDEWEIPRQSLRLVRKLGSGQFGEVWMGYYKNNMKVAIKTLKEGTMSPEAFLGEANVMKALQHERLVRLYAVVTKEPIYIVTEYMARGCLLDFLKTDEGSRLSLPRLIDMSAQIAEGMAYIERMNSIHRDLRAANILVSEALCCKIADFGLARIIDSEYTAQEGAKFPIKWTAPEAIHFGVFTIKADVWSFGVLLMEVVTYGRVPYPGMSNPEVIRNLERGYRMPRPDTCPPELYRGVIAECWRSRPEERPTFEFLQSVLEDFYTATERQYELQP
Chain of protein kinases (human kinome) (Homo sapiens, UniProt P11802) (P11802 whole entry): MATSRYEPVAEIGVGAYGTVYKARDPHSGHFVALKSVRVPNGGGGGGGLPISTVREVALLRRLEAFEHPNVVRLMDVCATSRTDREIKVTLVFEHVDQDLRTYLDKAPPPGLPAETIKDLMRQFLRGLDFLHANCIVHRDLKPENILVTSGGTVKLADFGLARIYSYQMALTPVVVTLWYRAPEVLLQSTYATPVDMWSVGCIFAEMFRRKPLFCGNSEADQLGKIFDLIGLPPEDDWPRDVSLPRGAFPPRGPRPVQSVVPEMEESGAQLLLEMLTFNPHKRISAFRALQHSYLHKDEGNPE
Chain of protein kinases (human kinome) (Homo sapiens, UniProt Q00534) (Q00534 whole entry): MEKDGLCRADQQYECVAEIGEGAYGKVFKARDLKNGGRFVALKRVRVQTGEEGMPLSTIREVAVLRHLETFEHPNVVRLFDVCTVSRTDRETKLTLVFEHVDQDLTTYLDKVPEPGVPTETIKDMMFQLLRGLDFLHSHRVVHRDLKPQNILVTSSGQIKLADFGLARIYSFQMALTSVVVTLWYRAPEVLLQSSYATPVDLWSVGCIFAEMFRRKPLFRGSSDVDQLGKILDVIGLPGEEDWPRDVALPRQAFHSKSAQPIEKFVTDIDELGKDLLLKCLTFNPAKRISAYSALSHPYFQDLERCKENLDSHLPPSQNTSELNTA
Chain of protein kinases (human kinome) (Homo sapiens, UniProt P53671) (P53671 whole entry): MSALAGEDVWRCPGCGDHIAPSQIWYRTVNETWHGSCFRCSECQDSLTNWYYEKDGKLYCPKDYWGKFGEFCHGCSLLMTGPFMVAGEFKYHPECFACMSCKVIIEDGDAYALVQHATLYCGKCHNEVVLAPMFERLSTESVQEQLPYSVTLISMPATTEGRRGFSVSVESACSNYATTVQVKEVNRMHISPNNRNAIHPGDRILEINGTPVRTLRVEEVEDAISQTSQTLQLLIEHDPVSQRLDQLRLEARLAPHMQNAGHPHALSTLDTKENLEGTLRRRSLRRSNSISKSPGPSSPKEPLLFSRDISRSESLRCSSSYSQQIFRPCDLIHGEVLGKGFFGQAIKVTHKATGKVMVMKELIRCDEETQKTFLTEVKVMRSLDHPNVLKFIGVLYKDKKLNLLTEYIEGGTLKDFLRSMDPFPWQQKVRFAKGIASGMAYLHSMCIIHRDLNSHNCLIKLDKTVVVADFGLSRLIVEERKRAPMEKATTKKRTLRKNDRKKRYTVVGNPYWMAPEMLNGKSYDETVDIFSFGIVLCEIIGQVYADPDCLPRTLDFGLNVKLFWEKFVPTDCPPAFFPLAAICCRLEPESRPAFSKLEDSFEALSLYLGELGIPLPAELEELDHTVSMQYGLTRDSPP

CN(C)C(=O)c1cc2cnc(Nc3ccc(N4CCN(CCCCNC(=O)COc5cccc6c5C(=O)N(C5CCC(=O)NC5=O)C6=O)CC4)cn3)nc2n1C1CCCC1 (centres unmarked) [BSJ.04.132]
logFC CDK4 (P11802) ([1]; experiment wp084): −0.9046
logFC CDK6 [2]: −0.7531
logFC of CDK6 (Q00534) [2]: −0.7531
logFC [3, 6]: −0.7484
logFC ([3]; GK P32189-3, experiment wp084): −0.383
logFC PDK3 ([3]; experiment wp084): −0.7397
logFC PDK3 (Q15120-2) ([3]; experiment wp084): −0.7397

Nc1ncc(-c2ccc(S(=O)(=O)N(CCCNC(=O)CCOCCOCCOCCOCCOCCNc3cccc4c3C(=O)N(C3CCC(=O)NC3=O)C4=O)C3CC3)cc2)cc1-c1ccc2c(c1)CCNC2=O (centres unmarked) [WH.10417.099]
logFC LIMK2 ([4]; experiment wp103): −0.5747
logFC LIMK2 ([4]; experiment wp107): −0.3744
logFC of LIMK2 ([4]; experiment wp103): −0.5747
logFC of LIMK2 ([4]; experiment wp107): −0.3744
logFC CSNK1D ([3]; Accession P48730-2, experiment wp056, direction down): −1.455
logFC CSNK1D ([3]; Accession P48730-2, experiment wp103, direction down): −1.301
logFC CSNK1D ([3]; Accession P48730-2, experiment wp107, direction down): −1.248
logFC CSNK1D ([3]; Accession P48730-2, experiment wp172, direction down): −0.6401
logFC GSK3B ([3]; Accession P49841-2, experiment wp056, direction down): −1.294
logFC GSK3B ([3]; Accession P49841-2, experiment wp103, direction down): −1.442
logFC GSK3B ([3]; Accession P49841-2, experiment wp105, direction down): −0.8403
logFC GSK3B ([3]; Accession P49841-2, experiment wp107, direction down): −1.446
logFC ([3]; CSNK1A1 (P48729-2), experiment wp107): −2.428
logFC CSNK1D ([3]; CSNK1D P48730-2, experiment wp056): −1.455
logFC CSNK1D ([3]; CSNK1D P48730-2, experiment wp103): −1.301
logFC CSNK1D ([3]; CSNK1D P48730-2, experiment wp107): −1.248
logFC CSNK1D ([3]; CSNK1D P48730-2, experiment wp172): −0.6401
logFC of CSNK1A1 (P48729-2) ([3]; Experiment wp107): −2.428
logFC GSK3B ([3]; GSK3B P49841-2, experiment wp056): −1.294
logFC GSK3B ([3]; GSK3B P49841-2, experiment wp103): −1.442
logFC GSK3B ([3]; GSK3B P49841-2, experiment wp105): −0.8403
logFC GSK3B ([3]; GSK3B P49841-2, experiment wp107): −1.446

C[C@@H]1C[C@@H](O)c2ncnc(N3CCN(C(=O)[C@H](CNCCCCCCCCCCc4cccc5c4C(=O)N(C4CCC(=O)NC4=O)C5=O)c4ccc(Cl)cc4)CC3)c21 (some centres unmarked) [INY.03.041.01]
logFC CDK4 (P11802) ([1]; experiment wp118): −0.4019

Cn1c(=O)c(-c2c(Cl)cccc2Cl)cc2cnc(Nc3ccc(OCCNC(=O)CCCCCCNC(=O)COc4cccc5c4C(=O)N(C4CCC(=O)NC4=O)C5=O)cc3)nc21 (centres unmarked) [SB1.G.192.1]
logFC BLK ([5]; experiment wp071): −2.399
logFC BLK ([5]; experiment wp081): −2.013
logFC BLK ([5]; experiment wp131): −2.465
logFC of BLK (P51451) ([5]; Experiment wp071): −2.399
logFC of BLK (P51451) ([5]; Experiment wp081): −2.013
logFC of BLK (P51451) ([5]; Experiment wp131): −2.465
logFC LIMK2 ([4]; experiment wp081): −0.371
logFC LIMK2 ([4]; experiment wp131): −0.5544
logFC of LIMK2 ([4]; experiment wp081): −0.371
logFC of LIMK2 ([4]; experiment wp131): −0.5544
logFC ABL1 ([3]; experiment wp071): −1.417
logFC ABL1 ([3]; experiment wp081): −1.189
logFC FYN ([3]; Accession P06241-2, experiment wp071): −1.595
logFC FYN ([3]; Accession P06241-2, experiment wp081): −0.9994
logFC FYN ([3]; Accession P06241-2, experiment wp131): −0.9918
logFC of SRC ([3]; experiment wp071): −2.578
logFC of SRC ([3]; experiment wp081): −2.113
logFC of SRC ([3]; experiment wp131): −2.127
logFC TNK2 (Q07912-3) ([3]; Experiment wp071, direction down): −1.728
logFC TNK2 (Q07912-3) ([3]; Experiment wp081, direction down): −0.9024
logFC FYN ([3]; FYN P06241-2, experiment wp071): −1.595
logFC FYN ([3]; FYN P06241-2, experiment wp081): −0.9994
logFC FYN ([3]; FYN P06241-2, experiment wp131): −0.9918
logFC LCK [3, 7]: −1.767
logFC LCK [3, 8]: −1.701
logFC ([3]; TNK2 (Q07912-3), experiment wp071, direction down): −1.728
logFC ([3]; TNK2 (Q07912-3), experiment wp081, direction down): −0.9024
logFC ABL1 (P00519-2) ([3]; experiment wp071): −1.417
logFC LCK (P06239-3) [3, 7]: −1.767
logFC ABL1 (P00519-2) ([3]; experiment wp081): −1.189
logFC ABL2 (P42684-5) ([3]; experiment wp131): −2.8
logFC of ABL2 (P42684-5) ([3]; experiment wp131): −2.8
logFC LCK (P06239-3) [3, 8]: −1.701

CCc1cnn2c(N(Cc3ccc(N)nc3)C(=O)CCOCCOCCOCCNC(=O)CNc3cccc4c3C(=O)N(C3CCC(=O)NC3=O)C4=O)cc(N3CCCC[C@H]3CCO)nc12 (some centres unmarked) [MFH.5.115.2]
logFC CDK4 (P11802) ([1]; experiment wp076): −0.7246
logFC BUB1B [3, 9]: −0.5013
logFC BUB1B [3, 10]: −0.5013
logFC [3, 11]: −0.349
logFC of CSNK1A1 (P48729-2) ([3]; experiment wp076): −0.349

CC(=O)c1c(C)c2cnc(Nc3ccc(N4CCN(CCOCCOCCOCCNC(=O)COc5cccc6c5C(=O)N(C5CCC(=O)NC5=O)C6=O)CC4)cn3)nc2n(C2CCCC2)c1=O (centres unmarked) [BSJ.03.123]
logFC CDK4 (P11802) ([1]; experiment wp084): −0.9496
logFC CDK6 [2]: −3.058
logFC of CDK6 (Q00534) [2]: −3.058
logFC [3, 6]: −0.5275
logFC ([3]; GK P32189-3, experiment wp084): −0.4109
logFC PDK3 ([3]; experiment wp084): −0.5908
logFC PDK3 (Q15120-2) ([3]; experiment wp084): −0.5908
logFC HK1 ([3]; protein HK1 (P19367-3), experiment wp084, down): −0.3484

Cc1ccc(NC(=O)c2cccc(C(F)(F)F)c2)cc1N1Cc2cnc(Nc3ccc(N4CCN(CCCCCCOc5cccc6c5C(=O)N(C5CCC(=O)NC5=O)C6=O)CC4)nc3)nc2N(C)C1=O (centres unmarked) [DB0663]
logFC CDK4 (P11802) ([1]; experiment wp045): −0.6823
logFC of BLK ([5]; BLK P51451, experiment wp045): −1.058
logFC of BLK (P51451) ([5]; Experiment wp045): −1.058
logFC LIMK2 ([4]; experiment wp045): −1.367
logFC of LIMK2 ([4]; experiment wp045): −1.367
logFC of SRC ([3]; experiment wp045): −0.4247
logFC MAP3K20 (Q9NYL2-2) ([3]; Experiment wp046): −0.8012
logFC LCK [3, 12]: −0.5823
logFC ([3]; SRC (P12931-2) protein abundance, degrader vs DMSO, down): −0.4247
logFC ([3]; TNK2 (Q07912-3), experiment wp045, direction down): −0.9271
logFC TNK2 ([3]; TNK2 Q07912-3, experiment wp045): −0.9271
kinases the bifunctional compound degrades ([3]; as stated for the structure in the embodiments): CDK4, BLK, FER, LIMK2, GAK, CSK, SIK2, LCK, PTK2B, SRC, ABL2, MAPK14,a MAPK9, MAP4K2, MKNK2, MAP3K20, and TNK2
logFC MAP3K20 (Q9NYL2-2) ([3]; experiment wp045): −0.8012
logFC LCK (P06239-3) [3, 12]: −0.5823
Kinase hits ([3]; kinases significantly downregulated vs DMSO (fold change cutoff −1.25, P-value<0.01), ≤8 h, 0.1-5 μM degrader, 7 cell lines): CDK4, BLK, FER, LIMK2, GAK, CSK, SIK2, LCK, PTK2B, SRC, ABL2, MAPK14.a MAPK9, MAP4K2, MKNK2, MAP3K20, TNK2
Total no. kinase hits ([3]; number of degraded kinases per library compound): 17

O=C1CCC(N2C(=O)c3cccc(NCCCCCCCCN4CCC(NC(=O)c5[nH]ncc5NC(=O)c5c(Cl)cccc5Cl)CC4)c3C2=O)C(=O)N1 (centres unmarked) [MFH.5.126.1]
logFC CDK4 (P11802) ([1]; experiment wp076): −0.608
logFC BUB1B [3, 9]: −0.7532
logFC CSNK1D ([3]; Accession P48730-2, experiment wp076, direction down): −0.9201
logFC GSK3B ([3]; Accession P49841-2, experiment wp078, direction down): −0.9629
logFC BUB1B [3, 10]: −0.7532
logFC ([3]; CDK9 (P50750-2) protein abundance, degrader vs DMSO, down): −0.7008
logFC [3, 13]: −1.494
logFC CLK1 [3, 13]: −1.494
logFC [3, 11]: −0.4586
logFC CSNK1D ([3]; CSNK1D P48730-2, experiment wp076): −0.9201
logFC DAPK1 (P53355-3) ([3]; Experiment wp076, direction of change down): −0.4488
logFC GSK3B ([3]; GSK3B P49841-2, experiment wp076): −0.9629
logFC CDK9 (P50750-2) ([3]; experiment wp076): −0.7008
logFC of CSNK1A1 (P48729-2) ([3]; experiment wp076): −0.4586
logFC DAPK1 ([3]; protein DAPK1 (P53355-3), experiment wp076, down): −0.4488
